pIC50: −log10 of the molar value.

In test [1] the target is T1, Serine/threonine-protein kinase receptor R3 (Mus musculus, UniProt Q61288).
T1 sequence (Q61288 whole entry): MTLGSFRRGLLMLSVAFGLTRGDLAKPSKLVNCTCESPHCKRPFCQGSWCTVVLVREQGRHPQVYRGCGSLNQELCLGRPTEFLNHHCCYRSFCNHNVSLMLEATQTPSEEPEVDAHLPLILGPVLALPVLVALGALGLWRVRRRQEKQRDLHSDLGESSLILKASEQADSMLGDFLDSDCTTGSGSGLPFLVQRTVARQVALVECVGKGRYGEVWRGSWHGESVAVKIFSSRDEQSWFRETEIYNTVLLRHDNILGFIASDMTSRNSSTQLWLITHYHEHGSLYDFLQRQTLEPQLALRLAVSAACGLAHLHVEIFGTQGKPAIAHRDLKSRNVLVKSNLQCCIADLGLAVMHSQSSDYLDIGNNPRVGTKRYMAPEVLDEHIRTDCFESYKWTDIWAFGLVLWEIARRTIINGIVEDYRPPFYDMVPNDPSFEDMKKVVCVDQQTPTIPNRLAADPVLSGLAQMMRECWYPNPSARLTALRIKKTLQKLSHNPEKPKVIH

For test [2], the target named is Bone morphogenetic protein receptor type-1A (Mus musculus, UniProt P36895).
The target in test [3] is T2, TGF-beta receptor type-1 (Mus musculus, UniProt Q64729).
T2 sequence (Q64729 whole entry): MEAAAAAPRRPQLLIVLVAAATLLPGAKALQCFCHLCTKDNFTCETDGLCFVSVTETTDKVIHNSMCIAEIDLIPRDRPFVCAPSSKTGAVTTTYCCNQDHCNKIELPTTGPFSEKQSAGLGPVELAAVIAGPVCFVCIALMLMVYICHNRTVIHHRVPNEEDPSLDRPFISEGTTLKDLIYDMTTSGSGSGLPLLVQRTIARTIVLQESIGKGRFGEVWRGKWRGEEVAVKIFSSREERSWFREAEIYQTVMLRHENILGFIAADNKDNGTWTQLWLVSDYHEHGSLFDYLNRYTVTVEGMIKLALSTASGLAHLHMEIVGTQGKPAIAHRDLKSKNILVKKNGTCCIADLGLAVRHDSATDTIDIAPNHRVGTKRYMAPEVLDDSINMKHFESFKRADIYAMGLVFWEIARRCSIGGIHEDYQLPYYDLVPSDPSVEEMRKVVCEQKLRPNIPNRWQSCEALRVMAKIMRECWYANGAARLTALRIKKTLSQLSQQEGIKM

Test [4] has as its target T3, Activin receptor type-1B (Mus musculus, UniProt Q61271).
T3 sequence (Q61271 whole entry): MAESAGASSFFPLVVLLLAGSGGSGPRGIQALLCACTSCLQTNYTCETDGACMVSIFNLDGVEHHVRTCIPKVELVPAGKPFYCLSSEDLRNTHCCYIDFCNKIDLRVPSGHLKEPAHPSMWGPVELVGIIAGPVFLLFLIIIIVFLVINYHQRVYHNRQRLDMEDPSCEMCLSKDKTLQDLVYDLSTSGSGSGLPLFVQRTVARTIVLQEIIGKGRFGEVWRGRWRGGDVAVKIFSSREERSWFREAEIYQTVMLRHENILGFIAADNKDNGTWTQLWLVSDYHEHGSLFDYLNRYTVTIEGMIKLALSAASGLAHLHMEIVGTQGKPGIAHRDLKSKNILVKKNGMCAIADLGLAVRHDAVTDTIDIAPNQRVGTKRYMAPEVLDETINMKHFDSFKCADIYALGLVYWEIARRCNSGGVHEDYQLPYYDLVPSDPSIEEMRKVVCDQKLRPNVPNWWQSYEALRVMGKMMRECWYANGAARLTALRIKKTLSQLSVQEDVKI

Test [5] deals with T4, Activin receptor type-1 (Mus musculus, UniProt P37172).
T4 sequence (P37172 whole entry): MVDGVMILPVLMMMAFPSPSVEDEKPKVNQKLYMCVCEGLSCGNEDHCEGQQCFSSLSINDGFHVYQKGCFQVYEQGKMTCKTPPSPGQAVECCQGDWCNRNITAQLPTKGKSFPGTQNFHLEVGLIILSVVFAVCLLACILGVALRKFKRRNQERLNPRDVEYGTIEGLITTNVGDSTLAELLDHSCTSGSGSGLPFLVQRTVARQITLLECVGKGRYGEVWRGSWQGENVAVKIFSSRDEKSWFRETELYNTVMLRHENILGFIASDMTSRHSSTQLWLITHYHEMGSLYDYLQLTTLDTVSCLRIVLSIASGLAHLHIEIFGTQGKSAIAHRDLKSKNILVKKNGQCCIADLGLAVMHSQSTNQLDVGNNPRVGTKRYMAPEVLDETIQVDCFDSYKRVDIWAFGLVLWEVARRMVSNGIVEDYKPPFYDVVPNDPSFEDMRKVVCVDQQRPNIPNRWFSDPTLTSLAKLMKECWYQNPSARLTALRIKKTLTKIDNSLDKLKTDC

Chain of Bone morphogenetic protein receptor type-1A (P36895 whole entry): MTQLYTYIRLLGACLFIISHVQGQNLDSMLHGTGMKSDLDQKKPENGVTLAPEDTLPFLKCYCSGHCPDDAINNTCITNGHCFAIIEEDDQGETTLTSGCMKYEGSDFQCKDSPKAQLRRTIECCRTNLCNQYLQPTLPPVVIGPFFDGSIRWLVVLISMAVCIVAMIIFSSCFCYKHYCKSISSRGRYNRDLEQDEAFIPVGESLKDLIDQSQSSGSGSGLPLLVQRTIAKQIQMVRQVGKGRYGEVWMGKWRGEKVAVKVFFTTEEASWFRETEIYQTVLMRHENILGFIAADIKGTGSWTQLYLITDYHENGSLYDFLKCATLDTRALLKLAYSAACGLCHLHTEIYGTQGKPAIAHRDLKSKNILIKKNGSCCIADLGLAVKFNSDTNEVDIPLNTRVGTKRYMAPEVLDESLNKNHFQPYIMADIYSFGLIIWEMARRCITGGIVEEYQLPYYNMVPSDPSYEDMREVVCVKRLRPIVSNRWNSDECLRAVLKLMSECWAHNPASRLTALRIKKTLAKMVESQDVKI

Regarding `c1ccc2c(-c3cnn4cc(-c5ccc(N6CCNCC6)cc5)cnc34)ccnc2c1` [LDN-193189], the pIC50 (as a rule, −log10 of the IC50, conventionally taken in molar units) in test [1] is 8.83; in test [2], 7.84; in test [3], 6.93.
On to `c1cc(-c2cnn3cc(-c4ccc(N5CCNCC5)cc4)cnc23)c2cccnc2c1` [LDN-212854], for which the pIC50 in test [1] was 8.62; in test [2], 7.07; in test [4], 5.67; in test [3], 5.03.
Turning to `COc1cc(-c2cc(-c3cccc(O)c3)cnc2N)cc(OC)c1OC` [K02288a], the pIC50 in test [1] was 8.44; in test [2], 7.59.
In the case of `CC(C)Oc1ccc(-c2cnc3c(-c4ccnc5ccccc45)cnn3c2)cc1` [4-(6-(4-isopropoxyphenyl)pyrazolo[1,5-a]pyrimidin-3-yl)quinoline], the pIC50 in test [1] was 7.11; in test [5], 7.90; in test [2], 6.62; in test [4] it was 4.96; in test [3], 5.22.
On to `c1cc(-c2cnn3cc(-c4ccc(OCCN5CCCCC5)cc4)cnc23)ccn1`, for which the pIC50 is 7.71 in test [1], 6.65 in test [2], 5.51 in test [4] and 5.11 in test [3].

For the origin of these results see BindingDB's records for doi:10.1021/cb300655w (Massachusetts Institute of Technology, 2013).
